Laboratory results published in publication PMC4605843, “Cell-Penetrating Peptides Selectively Cross the Blood-Brain Barrier In Vivo” (PLoS ONE, 2015).
Like-named read-outs stand apart in the source and are kept apart here. Ends that are not written are not given here.

Legend:
brain [1] = conditions: cited from earlier work; for Kin: rat, in vivo
brain [2] = conditions: cited from earlier work
brain [3] = conditions: mouse, in vivo; cited from earlier work
[4] = system: blood-brain barrier (BBB); assay: Multiple time regression (MTR) analysis, blood-to-brain influx; type: in vivo, ICR-CD-1 mice
Procedure: Shortly, 200 μl of the radioiodinated CPP solution (30000 cpm/μl) was injected into the right jugular externalis vein of anesthetized ICR-CD-1 mice, which were then decapitated at 1, 3, 5, 10, 12.5 and 15 min post injection, with first and last time points performed in duplicate, after which brains were collected and measured for radioactivity using a gamma counter (Wallac Wizard 1470, Perkin Elmer). Shortly before decapitation, blood was collected from the left carotid artery, which was centrifuged (10000 g, 15 min at 21°C) in order to measure the radioactivity of blood and serum. Dermorphin and radioiodinated BSA were used as positive and negative control, respectively. The blood-to-brain entry during the experimental period of 15 min was evaluated by plotting the ratio of brain (Am(T)) and serum activity (Cp(T)), corrected for the brain weight and serum volume, respectively, versus the exposure time (Θ), expressing the theoretical steady state serum level of the iodinated peptide at a given serum concentration [37, 73]. The exposure time is calculated as the integral of the arterial serum radioactivity over time divided by the radioactivity at time t. The integral is calculated through the trapezoidal rule of the log-transformed data [73]. In the linear part of the curve, assuming a two-compartmental BBB model, data can be fitted using a linear model from which the unidirectional influx rate (Kin), also referred to as unidirectional blood to brain clearance K1 [46], and the initial brain distribution volume (Vi) can be determined using the following equation according to Gjedde and Patlak [37–40]: Am(T)/Cp(T)=Abrain(T)/Aserum(T)=Kin⋅Θ+Vi with Θ = ∫0TCp(t) ⋅ dt/Cp(T) (1)

[5] = system: blood-brain barrier (BBB); assay: Regional variation in brain influx (MTR, dissected brain regions)
Procedure: The protocol of the multiple time regression (MTR) analysis to evaluate whether the peptides cross the BBB is described in detail elsewhere. […] Dermorphin and radioiodinated BSA were used as positive and negative control, respectively. […] The exposure time is calculated as the integral of the arterial serum radioactivity over time divided by the radioactivity at time t. The integral is calculated through the trapezoidal rule of the log-transformed data. In the linear part of the curve, assuming a two-compartmental BBB model, data can be fitted using a linear model from which the unidirectional influx rate (Kin), also referred to as unidirectional blood to brain clearance K1 [46], and the initial brain distribution volume (Vi) can be determined using the following equation according to Gjedde and Patlak: Am(T)/Cp(T)=Abrain(T)/Aserum(T)=Kin⋅Θ+Vi with Θ = ∫0TCp(t) ⋅ dt/Cp(T) (1)
Different dissected brain regions were weighed and measured in the gamma counter. The unidirectional influx and initial distribution volume of the iodinated peptides for the different brain regions are determined using Eq 1.
Generally, regression lines were computed using the least squares method. Regression lines of the ratio of the brain-to-serum radioactivity versus the exposure time obtained during the evaluation of the regional brain distribution and the used brain influx mechanism, were statistically compared using the Prism 6 software (GraphPad, La Jolla, USA).

[6] = 15 min post IV injection of radiolabeled peptide, % injected dose, n = 2, ICR-CD-1 mice; described in words
[7] = system: brain parenchyma and capillaries; assay: Capillary depletion method: brain parenchyma/capillary distribution; type: in vivo, ICR-CD-1 mice; conditions: mouse, in vivo, iv
Procedure: The capillary depletion method was used to evaluate the distribution of the peptide between the brain parenchyma and capillaries. In summary (see Materials and Methods in [45]), 200 μl of a radiolabeled peptide solution (10000 cpm/μl) was injected in the jugular externalis vein of two anesthetized ICR-CD-1 mice. Ten minutes after IV injection, mice were decapitated and brains were collected and measured for radioactivity. […] The resulting homogenate was weighed and centrifuged at 5400 g for 30 min at 4°C, resulting in a pellet, i.e. capillaries, and supernatant, i.e. parenchyma and fat tissue, which were weighed and measured in the gamma counter. […] Compartmental distribution was calculated as follows: Fractioncapillaries or parenchyma (%)=[…] or parenchyma/[…]×100 (4)

[8] = system: blood-brain barrier (BBB); assay: Brain-to-blood transport (efflux) after intracerebroventricular injection; conditions: mouse; for t1/2,brain (half-time disappearance): in vivo
Procedure: Female, ICR-CD-1 mice (Harlan Laboratories, Venray, The Netherlands), aged 7 to 10 weeks and weighing 28–36 g, were used during the in vivo BBB transport experiments. All animal experiments were performed in accordance with the Ethical Committee principles of laboratory animal welfare. The protocol was approved by the Ethical Committee of the Faculty of Veterinary Science of Ghent University (Permit Numbers: 2009–052 and 2014–128). Prior to experiments, mice were anesthetized by intraperitoneal injection of a 40% urethane solution (3 g/kg) (Sigma-Aldrich, Diegem, Belgium).
For evaluation of the efflux of the peptides out of the brain, 1 μl of a radioiodinated peptide solution (25000 cpm/μl) was injected in the lateral ventricle of anesthetized ICR-CD-1 mice at a speed of 360 μl/h for 10 s using a syringe pump (KDS100, KR analytical, Cheshire, UK). […] The brain half-time disappearance (t1/2,brain) was calculated from the linear regression of the natural logarithm of the residual radioactivity in brain versus time as follows: t1/2,brain=ln(2)/kout (5) with kout defined as the efflux rate constant calculated as the absolute value of the slope of the linear regression, applying first order kinetics. An extensive description of the protocol can be found elsewhere.

[9] = system: blood-brain barrier (BBB); assay: Saturability of brain influx: MTR with and without excess unlabeled peptide; set-up: species or system ICR-CD-1 mice; conditions: mouse, in vivo, iv
Procedure: This dose of 20 μg was determined based on the amount of peptide injected during a MTR experiment estimated based on the specific activity and taking into account the amount of non-radioactively iodinated peptide present in the injected dose. […] During this experiment, peptides are radiolabeled using a no-carrier added method in order that only radioactively labeled peptide was injected.

[10] = system: blood-brain barrier (BBB); assay: Classification of peptides according to their BBB influx
Description: This peptide is derived from the murine vascular endothelial (VE)-cadherin, located in the adherens junctions between the vascular endothelial cells, and constitutes the 13 cytosolic amino acids closest to the membrane and five amino acids from the C-terminus of the transmembrane region (615–632).

cellular uptake = system: cellular uptake; set-up: method as in Stalmans et al.[1]; conditions: cell-penetrating (CP-) response, quantitative expression of cellular influx; ref Stalmans et al.[1]; cited from earlier work
BBB = conditions: after i.p. injection, fluorimetry; ref [41] of S1 Table; cited from earlier work
Description: page 6: Supplementary Information S1 Table.

[11] = activity of the 68Ga-DOTA labeled peptide; ref [49]; cited from earlier work
Description: For pVEC and Tat 47–57, a very high liver concentration was observed compared to the other tissues, which can indicate metabolization, but also uptake of the peptides and their metabolites in hepatocytes.

[12] = 125I-radioiodinated, IV, ICR-CD-1 mice, MTR 1-15 min, ± 65% confidence limits

## CC1(C)S[C@@H]2[C@H](NC(=O)Cc3ccccc3)C(=O)N2[C@H]1C(=O)O [Benzylpenicillin]
Brain [1]
  Kin: 0.15 µL/s/g

## COc1cccc2c1C(=O)c1c(O)c3c(c(O)c1C2=O)C[C@@](O)(C(=O)CO)C[C@@H]3O[C@H]1C[C@H](N)[C@H](O)[C@H](C)O1 [Doxorubicin]
Brain [1]
  Kin: 0.25 µL/s/g
Brain [2]; mouse, in vivo
  Vd: < 100 µL/g

## CN1CC[C@]23c4c5ccc(O)c4O[C@H]2[C@@H](O[C@@H]2O[C@H](C(=O)O)[C@@H](O)[C@H](O)[C@H]2O)C=C[C@H]3[C@H]1C5 [Morphine-6-glucuronide]
Brain [2]; in situ brain perfusion in mice, ref [6] of S1 Table
  Kin: 0.024 µL/s/g

## CC(C)c1nc(CN(C)C(=O)N[C@H](C(=O)N[C@@H](Cc2ccccc2)C[C@H](O)[C@H](Cc2ccccc2)NC(=O)OCc2cncs2)C(C)C)cs1 [Ritonavir]
Brain [3]
  Brain drug level: 0.1 µg/g

## Dalargin
Brain [1]; in situ brain perfusion (single time) in rats, ref [2] of S1 Table
  Vd: 16.7 µL/g

## Dermorphin [reference compound]
[4]; 125I-radioiodinated peptide, IV jugular vein 200 μl (30000 cpm/μl), anesthetized female ICR-CD-1 mice, 1-15 min, brain/serum radioactivity (gamma counter) vs exposure time, whole brain, ± 65% confidence limits, pVEC, SynB3, TP10: two experiments fitted together
  Kin (unidirectional influx rate), linear Gjedde-Patlak model: 0.63 ± 0.10 µL/g/min
[4]; 125I-radioiodinated, IV, ICR-CD-1 mice, MTR 1-15 min, whole brain, ± 65% confidence limits
  Vi (initial brain distribution volume), linear Gjedde-Patlak model: 13.98 ± 0.79 µL/g
[4]; [12]
  K1 (unidirectional clearance, slope of the initial phase), biphasic model: 2.54 ± 0.50 µL/g/min
  K (net clearance, slope of the plateau phase), biphasic model: 0.03 ± 0.06 µL/g/min
  Vg (tissue brain distribution volume), biphasic model: 13.72 ± 2.17 µL/g
[5]; comparison of slopes (Kin), Prism 6, P threshold 0.05, ICR-CD-1 mice
  Difference in brain influx rates between the eight dissected brain regions: no statistically significant difference
[6]
  Relative tissue distribution: high liver distributions

## LLIILRRRIRKQAHAHSK-NH2 [pVEC, cell-penetrating peptide derived from murine VE-cadherin (615–632); tested radioiodinated]
[4]; mouse, in vivo, iv
  Kin (unidirectional influx rate), linear Gjedde-Patlak model: 6.02 ± 0.29 µL/g/min
  Maximal ratio of brain-to-serum radioactivity: about 180 μl/g
[7]
  Parenchymal fraction: 80%
[8]
  kout (efflux transfer constant): 0.10 ± 0.11 min⁻¹
[5]; mouse, in vivo
  Difference in brain influx rates between the eight dissected brain regions: significantly differed
[5]; mouse, in vivo, iv
  Kin, cerebellum: 5.61 [5.12, 6.10] μl/(g × min)
  Kin, frontal cortex: 4.84 [4.66, 5.02] μl/(g × min)
  Kin, hippocampus: 3.94 [3.51, 4.37] μl/(g × min)
  Kin, midbrain: 5.32 [5.17, 5.46] μl/(g × min)
  Kin, occipital and parietal cortex: 5.03 [4.73, 5.32] μl/(g × min)
  Kin, pons medulla: 4.51 [3.87, 5.15] μl/(g × min)
  Kin, striatum: 4.07 [3.77, 4.37] μl/(g × min)
  Kin, thalamus and hypothalamus: 4.12 [3.86, 4.38] μl/(g × min)
  Kin, whole brain: 6.04 [5.78, 6.30] μl/(g × min)
  Vi, cerebellum: 21.02 [15.09, 26.95] μl/g
  Vi, frontal cortex: 12.93 [10.77, 15.09] μl/g
  Vi, hippocampus: 9.33 [4.13, 14.54] μl/g
  Vi, midbrain: 13.88 [12.15, 15.62] μl/g
  Vi, occipital and parietal cortex: 16.61 [13.02, 20.19] μl/g
  Vi, pons medulla: 36.06 [28.34, 43.78] μl/g
  Vi, striatum: 11.47 [7.81, 15.13] μl/g
  Vi, thalamus and hypothalamus: 17.72 [11.58, 17.86] μl/g
  Vi, whole brain: 24.37 [21.23, 27.51] μl/g
[9]
  Vi with excess dose of unlabeled peptide: 1 µL/g
[10]
  BBB influx class: class 5
Cellular uptake
  CP-response: 1.318

## RRLSYSRRRF-NH2 [SynB3, short cationic cell-penetrating peptide]
[4]; mouse, in vivo, iv
  K1 (unidirectional clearance, slope of the initial phase), biphasic model: 29.84 ± 8.42 µL/g/min
  Kin (unidirectional influx rate), linear Gjedde-Patlak model: 5.63 ± 1.83 µL/g/min
  Maximal ratio of brain-to-serum radioactivity: about 70 μl/g
[7]
  Parenchymal fraction: 77%
[8]
  kout (efflux transfer constant): 0.05 ± 0.01 min⁻¹
  t1/2,brain (half-time disappearance): 15 min
[5]; mouse, in vivo
  Difference in brain influx rates between the eight dissected brain regions: no statistically significant difference
[10]
  BBB influx class: class 5
Cellular uptake
  CP-response: 0.126

## TP10
Cellular uptake
  CP-response: 1.641

## VIP: cargo peptide VIP alone
BBB
  Brain uptake efficiency: 0.78

## YGRKKRRQRRR-NH2 [Tat 47–57, short cationic cell-penetrating peptide]
[4]; [12]
  K1 (unidirectional clearance, slope of the initial phase), biphasic model: 13.50 ± 3.88 µL/g/min
[4]; mouse, in vivo, iv
  K (net clearance, slope of the plateau phase), biphasic model: 0.27 ± 0.46 µL/g/min
  Kin (unidirectional influx rate), linear Gjedde-Patlak model: 4.73 ± 1.23 µL/g/min
[7]
  Parenchymal fraction: 79%
[8]
  kout (efflux transfer constant): 0.21 ± 0.08 min⁻¹
  t1/2,brain (half-time disappearance): 3 min
[10]
  BBB influx class: class 5
Cellular uptake
  CP-response: 0.309

## ^68Ga-DOTA labeled pVEC: 68Ga-DOTA labeled pVEC of a literature study (TLLIILRRRIRKQAHAHS; also: 68Ga-DOTA label (site not given here); UniProt P55284 615-632, looked up, fragment)
[11]
  (human) serum half-life: a few hours
